# Test results as given in patent publication US9326986B2, “Quinazolinone, quinolone and related analogs as sirtuin modulators” (GLAXOSMITHKLINE LLC, priority 2008, dated 2016).
# Biological target: T1, SIRT1 (Homo sapiens, UniProt Q96EB6)
# T1 sequence (Q96EB6 1-747): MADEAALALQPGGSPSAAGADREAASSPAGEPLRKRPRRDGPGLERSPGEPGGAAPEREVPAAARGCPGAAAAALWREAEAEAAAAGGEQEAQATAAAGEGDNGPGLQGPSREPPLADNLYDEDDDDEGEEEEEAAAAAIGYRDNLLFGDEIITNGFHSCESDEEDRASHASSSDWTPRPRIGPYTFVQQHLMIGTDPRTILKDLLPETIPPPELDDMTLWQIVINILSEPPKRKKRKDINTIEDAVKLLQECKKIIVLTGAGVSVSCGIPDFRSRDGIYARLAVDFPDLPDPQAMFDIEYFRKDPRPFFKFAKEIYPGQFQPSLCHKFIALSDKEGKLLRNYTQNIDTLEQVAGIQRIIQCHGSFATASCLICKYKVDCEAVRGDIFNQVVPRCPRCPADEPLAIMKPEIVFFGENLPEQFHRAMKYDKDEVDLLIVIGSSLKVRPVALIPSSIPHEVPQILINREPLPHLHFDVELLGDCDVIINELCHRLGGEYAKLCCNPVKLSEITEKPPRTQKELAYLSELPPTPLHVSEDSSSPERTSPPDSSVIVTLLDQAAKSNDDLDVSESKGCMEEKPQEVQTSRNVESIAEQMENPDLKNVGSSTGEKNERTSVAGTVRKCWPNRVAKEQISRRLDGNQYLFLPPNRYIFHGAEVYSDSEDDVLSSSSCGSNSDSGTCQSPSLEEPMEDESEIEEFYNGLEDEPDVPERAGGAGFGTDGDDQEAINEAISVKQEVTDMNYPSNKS
# Experiment: Mass spectrometry based assay to identify modulators of SIRT1 activity (deacetylation of p53-based acetylated peptide)
# Assay type: biochemical
# Settings: 10 nM SIRT1, 0.5 μM peptide substrate, 120 μM βNAD+, 25 minutes at 25° C.
row,Compound,% Fold Act. (percent maximum fold activation)
1,Cc1cc(C(=O)Nc2cccc3c(=O)cc(-c4cccc(C(F)(F)F)c4)[nH]c23)n(C)n1 [Compound 410],A (Fold activation>200%)
2,O=C(Nc1cccc2c(=O)cc(-c3cccc(C(F)(F)F)c3)[nH]c12)c1ccns1 [Compound 411],A (Fold activation>200%)
3,O=C(NC1CCOCC1)c1cccc2c(=O)cc(-c3cccc(C(F)(F)F)c3)[nH]c12 [Compound 412],A (Fold activation>200%)
4,O=C(NC1CCOC1=O)c1cccc2c(=O)cc(-c3cccc(C(F)(F)F)c3)[nH]c12 (stereo not shown) [Compound 413],B (Fold Activation<200%)
5,O=C(NC1CN2CCC1CC2)c1cccc2c(=O)cc(-c3cccc(C(F)(F)F)c3)[nH]c12 (stereo not shown) [Compound 414],A (Fold activation>200%)
6,O=C(Nc1ccncn1)c1cccc2c(=O)cc(-c3cccc(C(F)(F)F)c3)[nH]c12 [Compound 415],A (Fold activation>200%)
7,O=C(Nc1cccc2c(=O)cc(-c3cccc(C(F)(F)F)c3)[nH]c12)c1cncs1 [Compound 416],A (Fold activation>200%)
8,O=C(Nc1cccc2c(=O)cc(-c3cccc(C(F)(F)F)c3)[nH]c12)c1ncccn1 [Compound 417],A (Fold activation>200%)
9,O=C(Nc1cccc2c(=O)cc(-c3cccc(C(F)(F)F)c3)[nH]c12)c1ccncn1 [Compound 418],A (Fold activation>200%)
10,O=C(Nc1cccc2c(=O)cc(-c3cccc(C(F)(F)F)c3)[nH]c12)c1cccnc1 [Compound 419],A (Fold activation>200%)
11,Cn1ccnc1C(=O)Nc1cccc2c(=O)cc(-c3cccc(C(F)(F)F)c3)[nH]c12 [Compound 420],A (Fold activation>200%)
12,O=C(Nc1cccc2c(=O)cc(-c3cccc(C(F)(F)F)c3)[nH]c12)c1cncnc1 [Compound 421],A (Fold activation>200%)
13,COc1cccc(C(=O)Nc2cccc3c(=O)cc(-c4cccc(C(F)(F)F)c4)[nH]c23)n1 [Compound 422],A (Fold activation>200%)
14,COc1cc(OC)nc(C(=O)Nc2cccc3c(=O)cc(-c4cccc(C(F)(F)F)c4)[nH]c23)n1 [Compound 423],A (Fold activation>200%)
15,O=C(Nc1cccc2c(=O)cc(-c3cccc(C(F)(F)F)c3)[nH]c12)c1cccc(F)n1 [Compound 424],A (Fold activation>200%)
16,O=C(Nc1cccc2c(=O)cc(-c3cccc(C(F)(F)F)c3)[nH]c12)c1cccc(N2CCOCC2)n1 [Compound 425],A (Fold activation>200%)
17,O=C(Nc1nccs1)c1cccc2c(=O)cc(-c3ccccc3Cl)[nH]c12 [Compound 426],A (Fold activation>200%)
18,O=C(Nc1nccs1)c1cccc2c(=O)cc(-c3ccccc3C(F)(F)F)[nH]c12 [Compound 427],A (Fold activation>200%)
19,O=C(Nc1nccs1)c1cccc2c(=O)cc(-c3cccc(OC(F)F)c3)[nH]c12 [Compound 428],A (Fold activation>200%)

row,Compound,% Fold Act. (percent maximum fold activation)
1,O=C(Nc1nccs1)c1cccc2c(=O)cc(-c3cccc(OC(F)(F)F)c3)[nH]c12 [Compound 429],A (Fold activation>200%)
2,O=C(Nc1nccs1)c1cccc2c(=O)cc(-c3ccccc3OC(F)(F)F)[nH]c12 [Compound 430],A (Fold activation>200%)
3,O=C(Nc1nccs1)c1cccc2c(=O)cc(-c3cccc(C(F)F)c3)[nH]c12 [Compound 431],A (Fold activation>200%)
4,O=C(Nc1cnccn1)c1cccc2c(=O)cc(-c3cccc(C(F)F)c3)[nH]c12 [Compound 432],A (Fold activation>200%)
5,O=C(Nc1nccs1)c1cccc2c(=O)cc(-c3cccc(Cl)c3)[nH]c12 [Compound 433],A (Fold activation>200%)
6,O=C(Nc1cnccn1)c1cccc2c(=O)cc(-c3cccc(Cl)c3)[nH]c12 [Compound 434],B (Fold Activation<200%)
7,O=C(Nc1nccs1)c1cccc2c(=O)cc(-c3ccccc3C(F)F)[nH]c12 [Compound 435],A (Fold activation>200%)
8,O=C(Nc1nccs1)c1cccc2c(=O)cc(-c3ccccc3OC(F)F)[nH]c12 [Compound 436],A (Fold activation>200%)
9,O=C(Nc1cccnc1)c1cccc2c(=O)cc(-c3ccccc3C(F)(F)F)[nH]c12 [Compound 437],A (Fold activation>200%)
10,O=C(Nc1cccnc1)c1cccc2c(=O)cc(-c3ccccc3C(F)F)[nH]c12 [Compound 438],A (Fold activation>200%)
11,O=C(Nc1cccnc1)c1cccc2c(=O)cc(-c3ccccc3OC(F)(F)F)[nH]c12 [Compound 439],A (Fold activation>200%)
12,O=C(Nc1cccnc1)c1cccc2c(=O)cc(-c3ccccc3OC(F)F)[nH]c12 [Compound 440],A (Fold activation>200%)
13,O=C(Nc1cccnc1)c1cccc2c(=O)cc(-c3ccccc3Cl)[nH]c12 [Compound 441],A (Fold activation>200%)
14,O=C(Nc1cnccn1)c1cccc2c(=O)cc(-c3cccc(OC(F)(F)F)c3)[nH]c12 [Compound 442],A (Fold activation>200%)
15,O=C(Nc1cccnc1)c1cccc2c(=O)cc(-c3cccc(OC(F)F)c3)[nH]c12 [Compound 443],A (Fold activation>200%)
16,O=C(Nc1cccc2c(=O)cc(-c3ccccc3C(F)(F)F)[nH]c12)c1cscn1 [Compound 444],A (Fold activation>200%)
17,O=C(Nc1cccc2c(=O)cc(-c3ccccc3C(F)(F)F)[nH]c12)c1cnccn1 [Compound 445],A (Fold activation>200%)
18,O=C(Nc1cccc2c(=O)cc(-c3cccc(Cl)c3)[nH]c12)c1cscn1 [Compound 446],A (Fold activation>200%)
19,O=C(Nc1cccc2c(=O)cc(-c3cccc(Cl)c3)[nH]c12)c1cnccn1 [Compound 447],A (Fold activation>200%)

# Same assay, conditions: SIRT1 activation; 10 nM SIRT1, 0.5 μM peptide substrate, 120 μM βNAD+, 25 minutes at 25° C.
row,Compound,EC1.5 μM
1,Cc1cc(C(=O)Nc2cccc3c(=O)cc(-c4cccc(C(F)(F)F)c4)[nH]c23)n(C)n1 [Compound 410],A (EC1.5<1.0 μM)
2,O=C(Nc1cccc2c(=O)cc(-c3cccc(C(F)(F)F)c3)[nH]c12)c1ccns1 [Compound 411],A (EC1.5<1.0 μM)
3,O=C(NC1CCOCC1)c1cccc2c(=O)cc(-c3cccc(C(F)(F)F)c3)[nH]c12 [Compound 412],B (EC1.5 1-25 μM)
4,O=C(NC1CCOC1=O)c1cccc2c(=O)cc(-c3cccc(C(F)(F)F)c3)[nH]c12 (stereo not shown) [Compound 413],B (EC1.5 1-25 μM)
5,O=C(NC1CN2CCC1CC2)c1cccc2c(=O)cc(-c3cccc(C(F)(F)F)c3)[nH]c12 (stereo not shown) [Compound 414],B (EC1.5 1-25 μM)
6,O=C(Nc1ccncn1)c1cccc2c(=O)cc(-c3cccc(C(F)(F)F)c3)[nH]c12 [Compound 415],A (EC1.5<1.0 μM)
7,O=C(Nc1cccc2c(=O)cc(-c3cccc(C(F)(F)F)c3)[nH]c12)c1cncs1 [Compound 416],A (EC1.5<1.0 μM)
8,O=C(Nc1cccc2c(=O)cc(-c3cccc(C(F)(F)F)c3)[nH]c12)c1ncccn1 [Compound 417],A (EC1.5<1.0 μM)
9,O=C(Nc1cccc2c(=O)cc(-c3cccc(C(F)(F)F)c3)[nH]c12)c1ccncn1 [Compound 418],A (EC1.5<1.0 μM)
10,O=C(Nc1cccc2c(=O)cc(-c3cccc(C(F)(F)F)c3)[nH]c12)c1cccnc1 [Compound 419],A (EC1.5<1.0 μM)
11,Cn1ccnc1C(=O)Nc1cccc2c(=O)cc(-c3cccc(C(F)(F)F)c3)[nH]c12 [Compound 420],A (EC1.5<1.0 μM)
12,O=C(Nc1cccc2c(=O)cc(-c3cccc(C(F)(F)F)c3)[nH]c12)c1cncnc1 [Compound 421],B (EC1.5 1-25 μM)
13,COc1cccc(C(=O)Nc2cccc3c(=O)cc(-c4cccc(C(F)(F)F)c4)[nH]c23)n1 [Compound 422],A (EC1.5<1.0 μM)
14,COc1cc(OC)nc(C(=O)Nc2cccc3c(=O)cc(-c4cccc(C(F)(F)F)c4)[nH]c23)n1 [Compound 423],A (EC1.5<1.0 μM)
15,O=C(Nc1cccc2c(=O)cc(-c3cccc(C(F)(F)F)c3)[nH]c12)c1cccc(F)n1 [Compound 424],A (EC1.5<1.0 μM)
16,O=C(Nc1cccc2c(=O)cc(-c3cccc(C(F)(F)F)c3)[nH]c12)c1cccc(N2CCOCC2)n1 [Compound 425],A (EC1.5<1.0 μM)
17,O=C(Nc1nccs1)c1cccc2c(=O)cc(-c3ccccc3Cl)[nH]c12 [Compound 426],A (EC1.5<1.0 μM)
18,O=C(Nc1nccs1)c1cccc2c(=O)cc(-c3ccccc3C(F)(F)F)[nH]c12 [Compound 427],A (EC1.5<1.0 μM)
19,O=C(Nc1nccs1)c1cccc2c(=O)cc(-c3cccc(OC(F)F)c3)[nH]c12 [Compound 428],A (EC1.5<1.0 μM)

row,Compound,EC1.5 μM
1,O=C(Nc1nccs1)c1cccc2c(=O)cc(-c3cccc(OC(F)(F)F)c3)[nH]c12 [Compound 429],A (EC1.5<1.0 μM)
2,O=C(Nc1nccs1)c1cccc2c(=O)cc(-c3ccccc3OC(F)(F)F)[nH]c12 [Compound 430],A (EC1.5<1.0 μM)
3,O=C(Nc1nccs1)c1cccc2c(=O)cc(-c3cccc(C(F)F)c3)[nH]c12 [Compound 431],A (EC1.5<1.0 μM)
4,O=C(Nc1cnccn1)c1cccc2c(=O)cc(-c3cccc(C(F)F)c3)[nH]c12 [Compound 432],A (EC1.5<1.0 μM)
5,O=C(Nc1nccs1)c1cccc2c(=O)cc(-c3cccc(Cl)c3)[nH]c12 [Compound 433],A (EC1.5<1.0 μM)
6,O=C(Nc1cnccn1)c1cccc2c(=O)cc(-c3cccc(Cl)c3)[nH]c12 [Compound 434],A (EC1.5<1.0 μM)
7,O=C(Nc1nccs1)c1cccc2c(=O)cc(-c3ccccc3C(F)F)[nH]c12 [Compound 435],B (EC1.5 1-25 μM)
8,O=C(Nc1nccs1)c1cccc2c(=O)cc(-c3ccccc3OC(F)F)[nH]c12 [Compound 436],A (EC1.5<1.0 μM)
9,O=C(Nc1cccnc1)c1cccc2c(=O)cc(-c3ccccc3C(F)(F)F)[nH]c12 [Compound 437],A (EC1.5<1.0 μM)
10,O=C(Nc1cccnc1)c1cccc2c(=O)cc(-c3ccccc3C(F)F)[nH]c12 [Compound 438],B (EC1.5 1-25 μM)
11,O=C(Nc1cccnc1)c1cccc2c(=O)cc(-c3ccccc3OC(F)(F)F)[nH]c12 [Compound 439],A (EC1.5<1.0 μM)
12,O=C(Nc1cccnc1)c1cccc2c(=O)cc(-c3ccccc3OC(F)F)[nH]c12 [Compound 440],B (EC1.5 1-25 μM)
13,O=C(Nc1cccnc1)c1cccc2c(=O)cc(-c3ccccc3Cl)[nH]c12 [Compound 441],B (EC1.5 1-25 μM)
14,O=C(Nc1cnccn1)c1cccc2c(=O)cc(-c3cccc(OC(F)(F)F)c3)[nH]c12 [Compound 442],A (EC1.5<1.0 μM)
15,O=C(Nc1cccnc1)c1cccc2c(=O)cc(-c3cccc(OC(F)F)c3)[nH]c12 [Compound 443],A (EC1.5<1.0 μM)
16,O=C(Nc1cccc2c(=O)cc(-c3ccccc3C(F)(F)F)[nH]c12)c1cscn1 [Compound 444],A (EC1.5<1.0 μM)
17,O=C(Nc1cccc2c(=O)cc(-c3ccccc3C(F)(F)F)[nH]c12)c1cnccn1 [Compound 445],A (EC1.5<1.0 μM)
18,O=C(Nc1cccc2c(=O)cc(-c3cccc(Cl)c3)[nH]c12)c1cscn1 [Compound 446],B (EC1.5 1-25 μM)
19,O=C(Nc1cccc2c(=O)cc(-c3cccc(Cl)c3)[nH]c12)c1cnccn1 [Compound 447],A (EC1.5<1.0 μM)
